Values after ≈ are worked out from the molar mass of the structure shown.
Assays:
Enterococcus faecalis [1] = assay: Antibacterial activity against Enterococcus faecalis after 24 hrs by broth microdilution method; format: functional; settings: read-out: MIC
Staphylococcus aureus [2] = assay: Antibacterial activity against Staphylococcus aureus Smith after 24 hrs by broth microdilution method; format: functional; settings: read-out: MIC
Staphylococcus aureus [3] = assay: Antibacterial activity against methicillin-resistant Staphylococcus aureus clinical isolate after 24 hrs by broth microdilution method; format: functional; settings: read-out: MIC
Staphylococcus aureus [4] = assay: Antibacterial activity against methicillin-resistant and vancomycin-intermediate resistant Staphylococcus aureus clinical isolate after 24 hrs by broth microdilution method; format: functional; settings: read-out: MIC
Staphylococcus aureus [5] = assay: Antibacterial activity against vancomycin-intermediate resistant Staphylococcus aureus clinical isolate after 24 hrs by broth microdilution method; format: functional
Enterococcus faecalis [6] = assay: Antibacterial activity against vancomycin A-resistant Enterococcus faecalis after 24 hrs by broth microdilution method; format: functional; settings: read-out: MIC
Enterococcus faecium [7] = assay: Antibacterial activity against Enterococcus faecium after 24 hrs by broth microdilution method; format: functional; settings: read-out: MIC
Enterococcus faecium [8] = assay: Antibacterial activity against vancomycin A-resistant Enterococcus faecium clinical isolate after 24 hrs by broth microdilution method; format: functional; settings: read-out: MIC
Escherichia coli = assay: Antibacterial activity against Escherichia coli SKF-12140 after 24 hrs by broth microdilution method; format: functional; settings: read-out: MIC
Candida albicans = assay: Antifungal activity against Candida albicans SKF-2270 after 24 hrs by broth microdilution method; format: functional; settings: read-out: MIC
[9] = Toxicity assessed as hemolysis in erythrocytes at 180 mg/L; format: cell-based, Erythrocyte; settings: human, erythrocytes; read-out: Activity
[10] = Toxicity assessed as hemolysis in erythrocytes at 90 mg/L; format: cell-based, Erythrocyte; settings: human, erythrocytes; read-out: Activity
Staphylococcus aureus [11] = assay: Antibacterial activity against vancomycin-intermediate resistant Staphylococcus aureus clinical isolate in presence of 30% bovine serum after 24 hrs by broth microdilution method; format: functional
Staphylococcus aureus [12] = assay: Antibacterial activity against Staphylococcus aureus Smith in presence of 30% bovine serum after 24 hrs by broth microdilution method; format: functional
Enterococcus faecalis [13] = assay: Antibacterial activity against vancomycin-resistant Enterococcus faecalis in presence of 30% bovine serum after 24 hrs by broth microdilution method; format: functional
Enterococcus faecium [14] = assay: Antibacterial activity against vancomycin A-resistant Enterococcus faecium clinical isolate in presence of 30% bovine serum after 24 hrs by broth microdilution method; format: functional
[15] = Toxicity assessed as hemolysis in erythrocytes at 400 mg/L; format: cell-based, Erythrocyte; settings: human, read-out: Activity
[16] = Toxicity assessed as hemolysis in erythrocytes at 200 mg/L; format: cell-based, Erythrocyte; settings: human, read-out: Activity
[17] = Toxicity assessed as hemolysis in erythrocytes at 100 mg/L; format: cell-based, Erythrocyte; settings: human, read-out: Activity
Streptococcus pyogenes = assay: Antibacterial activity against Streptococcus pyogenes C203 after 24 hrs by broth microdilution method; format: functional; settings: C203, 24 h, read-out: MIC

| Structure (SMILES) | MIC (Enterococcus faecalis [1]) | MIC (Staphylococcus aureus [2]) | MIC (Staphylococcus aureus [3]) | MIC (Staphylococcus aureus [4]) | MIC (Staphylococcus aureus [5]) | MIC (Enterococcus faecalis [6]) | MIC (Enterococcus faecium [7]) | MIC (Enterococcus faecium [8]) | MIC (Escherichia coli) | MIC (Candida albicans) | hemolysis at 180 mg/L [9] | hemolysis at 90 mg/L [10] | MIC (Staphylococcus aureus [11]) | MIC (Staphylococcus aureus [12]) | MIC (Enterococcus faecalis [13]) | MIC (Enterococcus faecium [14]) | hemolysis at 400 mg/L [15] | hemolysis at 200 mg/L [16] | hemolysis at 100 mg/L [17] | MIC (Streptococcus pyogenes) |
| --- | --- | --- | --- | --- | --- | --- | --- | --- | --- | --- | --- | --- | --- | --- | --- | --- | --- | --- | --- | --- |
| CC(C)C[C@@H]1NC(=O)CNC(=O)[C@H](c2ccc(O)cc2)NC(=O)[C@@H]([C@@H](C)O)NC(=O)[C@H](c2ccc(O[C@H]3O[C@H](CO)[C@@H](O)[C@H](O)[C@@H]3O[C@H]3O[C@H](CO)[C@@H](O)[C@H](O)[C@@H]3O)cc2)NC(=O)[C@@H](CCCN)NC(=O)[C@H](Cc2ccccc2)NC(=O)[C@H]([C@@H](C)O)NC(=O)[C@@H](c2ccc(O)cc2)NC(=O)[C@H](c2ccc(O)cc2)NC(=O)[C@@H](C(C)C)NC(=O)[C@@H](CCCN)NC(=O)[C@@H](c2ccc(O)cc2)NC(=O)[C@@H](CNC(=O)[C@H](CC(N)=O)NC(=O)Cc2ccccc2)[C@@H](C(N)=O)OC(=O)[C@H](c2ccc(O)c(Cl)c2)NC(=O)[C@@H](C)NC1=O.Cl | 2 µg/mL | 1 µg/mL | 1 µg/mL | 4 µg/mL | 2 µg/mL | 2 µg/mL | 2 µg/mL | 1 µg/mL | > 128 µg/mL | > 128 µg/mL | 0% | 0% | 2 µg/mL | 1 µg/mL | 2 µg/mL | 1 µg/mL | 2% | 0% | 3% |  |
| CC(C)/C=C/C=C/CC(=O)N[C@@H](CC(N)=O)C(=O)NC[C@@H]1C(=O)N[C@H](c2ccc(O)cc2)C(=O)N[C@H](CCCN)C(=O)N[C@H](C(C)C)C(=O)N[C@@H](c2ccc(O)cc2)C(=O)N[C@H](c2ccc(O)cc2)C(=O)N[C@@H]([C@@H](C)O)C(=O)N[C@@H](Cc2ccccc2)C(=O)N[C@H](CCCN)C(=O)N[C@@H](c2ccc(O[C@H]3O[C@H](CO)[C@@H](O)[C@H](O)[C@@H]3O[C@H]3O[C@H](CO)[C@@H](O)[C@H](O)[C@@H]3O)cc2)C(=O)N[C@H]([C@@H](C)O)C(=O)N[C@@H](c2ccc(O)cc2)C(=O)NCC(=O)N[C@@H](CC(C)C)C(=O)N[C@H](C)C(=O)N[C@@H](c2ccc(O)c(Cl)c2)C(=O)O[C@@H]1C(N)=O | 0.25 µg/mL (≈ 0.0974 µM) | ≤ 0.125 µg/mL | 0.25 µg/mL (≈ 0.0974 µM) | 2 µg/mL (≈ 0.779 µM) | 1 µg/mL (≈ 0.39 µM) | ≤ 0.125 µg/mL | 0.25 µg/mL (≈ 0.0974 µM) | ≤ 0.125 µg/mL | > 128 µg/mL | > 128 µg/mL |  |  | 4 µg/mL | 1 µg/mL | 1 µg/mL | 1 µg/mL |  | 29% | 30% | ≤ 0.125 µg/mL |
| CC(C)/C=C/C=C\CC(=O)N[C@@H](CC(N)=O)C(=O)NC[C@@H]1C(=O)N[C@H](c2ccc(O)cc2)C(=O)N[C@H](CCCN)C(=O)N[C@H](C(C)C)C(=O)N[C@@H](c2ccc(O)cc2)C(=O)N[C@H](c2ccc(O)cc2)C(=O)N[C@@H]([C@@H](C)O)C(=O)N[C@@H](Cc2ccccc2)C(=O)N[C@H](CCCN)C(=O)N[C@@H](c2ccc(O[C@H]3O[C@H](CO)[C@@H](O)[C@H](O)[C@@H]3O[C@H]3O[C@H](CO)[C@@H](O)[C@H](O)[C@@H]3O)cc2)C(=O)N[C@H]([C@@H](C)O)C(=O)N[C@@H](c2ccc(O)cc2)C(=O)NCC(=O)N[C@@H](CC(C)C)C(=O)N[C@H](C)C(=O)N[C@@H](c2ccc(O)c(Cl)c2)C(=O)O[C@@H]1C(N)=O | ≤ 0.125 µg/mL | ≤ 0.125 µg/mL | ≤ 0.125 µg/mL | 1 µg/mL (≈ 0.39 µM) | 0.5 µg/mL (≈ 0.195 µM) |  | 0.25 µg/mL (≈ 0.0974 µM) | ≤ 0.125 µg/mL | > 128 µg/mL | > 128 µg/mL |  |  | 2 µg/mL | 0.5 µg/mL | 0.5 µg/mL | 1 µg/mL | 97% | 81% | 64% | ≤ 0.125 µg/mL |
| CCC/C=C/C=C\CC(=O)N[C@@H](CC(N)=O)C(=O)NC[C@@H]1C(=O)N[C@H](c2ccc(O)cc2)C(=O)N[C@H](CCCN)C(=O)N[C@H](C(C)C)C(=O)N[C@@H](c2ccc(O)cc2)C(=O)N[C@H](c2ccc(O)cc2)C(=O)N[C@@H]([C@@H](C)O)C(=O)N[C@@H](Cc2ccccc2)C(=O)N[C@H](CCCN)C(=O)N[C@@H](c2ccc(O[C@H]3O[C@H](CO)[C@@H](O)[C@H](O)[C@@H]3O[C@H]3O[C@H](CO)[C@@H](O)[C@H](O)[C@@H]3O)cc2)C(=O)N[C@H]([C@@H](C)O)C(=O)N[C@@H](c2ccc(O)cc2)C(=O)NCC(=O)N[C@@H](CC(C)C)C(=O)N[C@H](C)C(=O)N[C@@H](c2ccc(O)c(Cl)c2)C(=O)O[C@@H]1C(N)=O | ≤ 0.125 µg/mL | ≤ 0.125 µg/mL | ≤ 0.125 µg/mL | 1 µg/mL (≈ 0.39 µM) | 0.5 µg/mL (≈ 0.195 µM) |  | ≤ 0.125 µg/mL |  | > 128 µg/mL | > 128 µg/mL |  |  | 2 µg/mL | 0.5 µg/mL | 0.5 µg/mL | 1 µg/mL | 94% | 83% | 65% | ≤ 0.125 µg/mL |
| CCC/C=C/C=C/CC(=O)N[C@@H](CC(N)=O)C(=O)NC[C@@H]1C(=O)N[C@H](c2ccc(O)cc2)C(=O)N[C@H](CCCN)C(=O)N[C@H](C(C)C)C(=O)N[C@@H](c2ccc(O)cc2)C(=O)N[C@H](c2ccc(O)cc2)C(=O)N[C@@H]([C@@H](C)O)C(=O)N[C@@H](Cc2ccccc2)C(=O)N[C@H](CCCN)C(=O)N[C@@H](c2ccc(O[C@H]3O[C@H](CO)[C@@H](O)[C@H](O)[C@@H]3O[C@H]3O[C@H](CO)[C@@H](O)[C@H](O)[C@@H]3O)cc2)C(=O)N[C@H]([C@@H](C)O)C(=O)N[C@@H](c2ccc(O)cc2)C(=O)NCC(=O)N[C@@H](CC(C)C)C(=O)N[C@H](C)C(=O)N[C@@H](c2ccc(O)c(Cl)c2)C(=O)O[C@@H]1C(N)=O | ≤ 0.125 µg/mL | ≤ 0.125 µg/mL | ≤ 0.125 µg/mL | 1 µg/mL (≈ 0.39 µM) | 0.5 µg/mL (≈ 0.195 µM) |  | ≤ 0.125 µg/mL |  | > 128 µg/mL | > 128 µg/mL |  |  | 2 µg/mL | 0.5 µg/mL | 0.5 µg/mL | 1 µg/mL | 78% | 37% | 23% | ≤ 0.125 µg/mL |
| CC(C)C/C=C/C=C/CC(=O)N[C@@H](CC(N)=O)C(=O)NC[C@@H]1C(=O)N[C@H](c2ccc(O)cc2)C(=O)N[C@H](CCCN)C(=O)N[C@H](C(C)C)C(=O)N[C@@H](c2ccc(O)cc2)C(=O)N[C@H](c2ccc(O)cc2)C(=O)N[C@@H]([C@@H](C)O)C(=O)N[C@@H](Cc2ccccc2)C(=O)N[C@H](CCCN)C(=O)N[C@@H](c2ccc(O[C@H]3O[C@H](CO)[C@@H](O)[C@H](O)[C@@H]3O[C@H]3O[C@H](CO)[C@@H](O)[C@H](O)[C@@H]3O)cc2)C(=O)N[C@H]([C@@H](C)O)C(=O)N[C@@H](c2ccc(O)cc2)C(=O)NCC(=O)N[C@@H](CC(C)C)C(=O)N[C@H](C)C(=O)N[C@@H](c2ccc(O)c(Cl)c2)C(=O)O[C@@H]1C(N)=O | ≤ 0.125 µg/mL | ≤ 0.125 µg/mL | ≤ 0.125 µg/mL | 1 µg/mL (≈ 0.388 µM) | 0.5 µg/mL (≈ 0.194 µM) |  | ≤ 0.125 µg/mL |  | > 128 µg/mL | > 128 µg/mL |  |  | 4 µg/mL | 1 µg/mL | 0.5 µg/mL | 1 µg/mL | 78% | 87% | 85% | ≤ 0.125 µg/mL |
